Measured values: PMC10056348, “Photocaged Histone Deacetylase Inhibitors as Prodrugs in Targeted Cancer Therapy” (Pharmaceuticals, 2023)
Like-named read-outs stand apart in the source and are kept apart here.

Tests used:
Format in all cases: cell-based
[1] = tested on: acetyl-α-tubulin in MV-3 cells; test: Immunoblot of acetyl-α-tubulin (marker of HDAC6 inhibition); details: 24 h, 3.1 µM
Procedure: MV-3 cells were seeded to cell culture flasks and cultured for 48 h. Aliquots of the DMSO stock solution (10 mM) designated for photolysis were irradiated for 10 min with the UV reactor (see Section 4.3). The cells were treated with the stock solutions, processed with or without irradiation, of the indicated concentration or vehicle (DMSO) for 24 h. Cell lysis was performed with Cell Extraction Buffer (10 mM Tris, pH 7.4, 100 mM NaCl, 1 mM EDTA, 1 mM EGTA, 1 mM NaF, 20 mM Na4P2O7, 2 mM Na3VO4, 1% Triton™ ×-100, 10% glycerol, 0.1% SDS, 0.5% deoxycholate; Catalog# FNN0011, Thermo Fisher Scientific Inc., Waltham, MA, USA) and addition of Halt Protease Inhibitor Cocktail (100×) (Catalog# 78429, Life Technologies GmbH Carlsbad, CA, USA) and phenylmethanesulfonyl fluoride (Catalog# 10837091001, Sigma-Aldrich, St. Louis, MO, USA) according to manufacturer instructions. Protein content was determined by Pierce™ BCA Protein Assay Kit (Catalog# 23225, Thermo Fisher Scientific Inc., Waltham, MA, USA) according to manufacturer guidelines. Samples were denatured by Laemmli 2× Concentrate (Catalog# S3401-10VL, Sigma-Aldrich, St. Louis, MO, USA), and Precision Plus Protein Unstained Standard was used as molecular weight marker (Catalog# 1610363, Bio-Rad, Hercules, CA, USA). SDS-PAGE was performed with 10% Mini-PROTEAN TGX Stain-Free Gel at 200 V for 50 min (Catalog# 458035, Bio-Rad, Hercules, CA, USA). Afterwards, proteins were transferred with the Trans-Blot Turbo Transfer System (Catalog# 1704150, Bio-Rad, Hercules, CA, USA) to Immobilon-FL PVDF membranes (Catalog# IPFL00005, Millipore Merck, Burlington, MA, USA) at 1.0 A for 30 min and incubated with 5% milk-powder solution for 1 h at room temperature under slight agitation. Subsequently, the membranes were incubated with anti-acetyl-histone H3 (Catalog# 9677S, Cell Signaling Technology, Denver, MA, USA), anti-acetyl-α-tubulin (Catalog#5335, Cell Signaling Technology, Denver, MA, USA), and anti-GAPDH (Catalog# T0004, Affinity Biosciences, Cincinnati, OH, USA) in 1:1000–1:10000 dilutions at 4 °C, overnight. […]

[2] = tested on: cellular HDAC activity in MV-3 cells; test: HDAC whole-cell assay; details: for IC50: read-out: IC50 whole-cell HDAC inhibition
Procedure: (§1) The amelanotic melanoma cell line MV-3 was obtained from EPO GmbH Berlin-Buch. The human ovarian carcinoma cell line A2780 was obtained from the European Collection of Cell Cultures (ECACC, Salisbury, UK). The cell lines were cultivated in RPMI 1640 medium supplemented with 10% fetal bovine serum and 50 U/mL penicillin and 50 µg/mL streptomycin and incubated at 37 °C under humidified air with 5% CO2 to 80–90% confluency before being used in further assays.
The HDAC whole-cell assay is based on the assay established by Ciossek et al. and Bonfils et al., with minor changes. Melanoma cells MV-3 were seeded in concentration of 15 × 10^3 cells/well (total volume of 81 µL) in 96-well cell-culture microplates (Catalog# 655086, Greiner Bio-One, Frickenhausen, Germany ) and cultured for 24 h. Aliquots of the DMSO stock solutions (10 mM) designated for photolysis were irradiated for 10 min with the UV reactor (see Section 4.3). The stock solutions processed with or without irradiation were used to perform a 4-fold serial dilution in PBS. Next, the cells were treated with 9 µL of the serial dilution for 18 h. For the analysis of the remaining HDAC activity, 10 µL of substrate solution, containing 3 mM Boc-Lys(ε-Ac)-AMC (Catalog# 233691-67-3, BLD pharmatech GmbH, Kaiserslautern, Germany) and 0.5% IGEPAL CA-630 (Catalog# J61055, Alfa Aesar, Thermo Fisher Scientific, Heysham, United Kingdom), was added and incubated for 3 h under cell culture conditions. The reaction was stopped with 100 µL of stop solution (50 mM Tris-HCl, 137 mM NaCl, 2.7 mM KCl, 1 mM MgCl2, 1% IGEPAL CA-630, 10 µM vorinostat, 2.0 mg/mL trypsin) and developed for 1.5 h under cell culture conditions. The fluorescence signal was measured using a Spark multimode microplate reader (Tecan Group AG, Männedorf, Swiss) at excitation wavelength of λ = 355 nm and emission wavelength of λ = 460 nm. Concentration-effect curves were generated using the four-parameter logistic equation (GraphPad Prism 9.0, San Diego, CA, USA), and mean IC50 values were determined by nonlinear regression based on at least three independent experiments in duplicates.

MV-3 cell line = test: MTT cell viability assay, MV-3
Procedure: as §1
For this, 200-fold dilution series of the compounds of the respective stock solutions in DMSO (10 mM) were prepared in DMSO using clear U-bottom 96-well microplates (Greiner Bio-One, Greiner AG, Kremsmünster, Austria). Predilutions intended for photolysis experiments were irradiated for 10 min in the UV reactor described above. Thereafter, all predilutions were further diluted 1:200 in medium and provided in clear sterile F-bottom 96-well plates (Starlab GmbH, Hamburg, Germany). MV-3 cells were added at a density of 3000 cells/well and A2780 cells at a density of 8000 cells/well. The cells were added directly and without prior attachment. Final volume was 200 µL, and the final DMSO concentration was 0,5%. After 72 h, 40 µL MTT (3-(4,5-dimethylthiazol-2-yl)-2,5-diphenyltetrazolium bromide; BioChemica, Applichem GmbH, Darmstadt, Germany ) solution (5 mg/mL in phosphate-buffered saline) was added to determine cell survival. The formazan dye was dissolved in DMSO (Sigma-Aldrich, Steinheim, Germany) after 1 h, and absorbance was measured at 570 nm and 690 nm using a Multiskan microplate photometer (Thermo Fisher Scientific, Waltham, MA, USA). Concentration-effect curves were generated using the four-parameter logistic equation (GraphPad Prism 9.0, San Diego, CA, USA), and mean IC50 values were determined by nonlinear regression based on at least three distinct experiments in duplicates.

SMILES | level of acetylated α-tubulin ([1]; after UV irradiation (365 nm, 10 min)) | level of acetylated α-tubulin ([1]; without UV irradiation) | IC50 whole-cell HDAC inhibition ([2]; 18 h, without UV irradiation) | IC50 ([2]; light or radiation study, 18 h, after UV irradiation (365 nm, 10 min)) [nM] | inhibition at 25 µM ([2]; light or radiation study, at 25 µM, without UV irradiation) [%] | IC50 (MV-3) (MV-3 cell line; MTT, 72 h, without UV irradiation) | IC50 (MV-3 cell line; MV-3, light or radiation study, MTT, 72 h, after UV irradiation (365 nm, 10 min)) [nM] | inhibition at 25 µM (MV-3 cell line; MV-3, light or radiation study, at 25 µM, without UV irradiation) [%] | IC50 ([2]; 18 h, without UV irradiation) [nM] | IC50 ([2]; MV-3, light or radiation study, 18 h, without UV irradiation) [nM] | IC50 (MV-3 cell line; MV-3, light or radiation study, MTT, 72 h, without UV irradiation) [nM]
COc1cc(CONC(=O)c2ccc(CN(CC(=O)NCc3ccccc3)C(=O)c3ccc(N(C)C)cc3)cc2)c([N+](=O)[O-])cc1OC [pc-I, N-[2-(Benzylamino)-2-oxoethyl]-N-(4-{[(4,5-dimethoxy-2-nitrobenzyl)oxy]carbamoyl}benzyl)-4-(dimethylamino)benzamide] | increased level of acetyl-α-tubulin | no increased levels of acetylated α-tubulin | n.e. (no effect: <25% inhibition at 25 µM) | 73 | < 25 | n.e. ^b (n.e— no effect: <25% inhibition at 25 µM) | 727 ± 133 | < 25 |  |  | 
CN(C)c1ccc(C(=O)N(CC(=O)NCc2ccccc2)Cc2ccc(C(=O)NO)cc2)cc1 [I, N-[2-(benzylamino)-2-oxoethyl]-4-(dimethylamino)-N-[4-(hydroxycarbamoyl)-benzyl]-benzamide] |  | strong hyperacetylation |  |  |  |  |  |  | 90.6 ± 5.74 | 91 | 616 ± 161
